According to paper PMC5427942, “Methionine aminopeptidase 2 is a key regulator of apoptotic like cell death in Leishmania donovani” (Scientific Reports, 2017):

Key:
[1] = biological target: T1, methionine aminopeptidase 2 (LdMAP2) (Leishmania donovani, UniProt A0A3S7WWI2); test: fluorogenic Met-AMC hydrolysis assay, Lineweaver-Burk plot, single inhibitor concentration ([…]); assay type: biochemical
T1 construct: gene LdCL_210014600

purified protein = substrate: CSCC[C@H](N)C(=O)Nc1ccc2c(C)cc(=O)oc2c1; test: purified protein; details: divalent metal ion ([…] NiSO4 in assay)

In the case of CO[C@@H]1[C@H](OC(=O)NC(=O)CCl)CC[C@]2(CO2)[C@H]1[C@@]1(C)O[C@@H]1CC=C(C)C [TNP-470, 5-methoxy-4-(2-methyl-3-(3-methyl-2-butenyl)oxiranyl)-1-oxaspiro(2,5)oct-6-yl (chloroacetyl) carbamate], the Ki [1] is reported as 13.5 nM.

B1: methionine aminopeptidase 2 (LdMAP2) (Leishmania donovani) (protein)
chain: MPPKMSAKNKQQPKQQGGNKKGKGSSQDGDDFDAMLAAAVNASKADAAKNHSNNHQGKRSSNGNGTAPASRSLAADEPVVPSSADHPENPYPKTADGYPRQTWPEPTVLVSKQFAPGQFPAGEIVDHPGEMNNFRRSSEEKRALARASEQQVQEMREAAEVHRQVRTWAQSWIKPGLSLMLMTDRIEKKLNELIGKDGILRGQAFPTGCSLNHVAAHYTPNTGDEKVVLAYDDVMKVDFGTHINGRIIDCAWTVAFNPMFDPLLQAVKEATYEGIKQAGIDVRLGDIGAAIEEVMESHEVEINGKVHQVKSIRNLSGHNIAPYIIHSGKSVPIVKGGEQTKMEEGEVFAIETFGSTGRGFVNEDLECSHYMMRPGAEVMQLRSEKAQQLLKHIHKSYSTLAFCRKWLDRDGFDRHLMNLNRLVDEGAVNKYPPLVDVKGSYTAQYEHTIYLGPTAKEILSKGSDY
Molecule B1 has a Km (purified protein) of 200 µM.
